The text below walks through data of ChEMBL document CHEMBL4483862, “Open-source discovery of chemical leads for next-generation chemoprotective antimalarials” (2018).

The assay relates to Plasmodium berghei. The assay is described as follows: Luciferase/luciferin-expressing antifolate-resistant parasites were used to infect a culture of HepG2 cells that were pre-incubated with compounds. Infected hepatocytes emit light due to the luciferase reaction. Assay results are presented as the percent inhibition of light emission compared to control. […]. Format: functional. Particulars: sporozoite; for IC90: read-out: LUCIFERASE INFECTION ASSAY - IC90.

The mark [1] stands for this setting: read-out: LUCIFERASE INFECTION ASSAY - IC50.

Some results are limits rather than exact numbers.

As for `Cc1cccc2sc(N(Cc3ccccc3)C(=O)C3CCN(C(=O)C(C)(C)C)CC3)nc12`, the 90% effect concentration (IC90) was greater than 10 µM. Besides, the half-inhibitory concentration (IC50) under setting [1] was greater than 10 µM.

With `Cc1ccc(OCc2csc(-c3cnn(C)c3)n2)c2c1C(C)CC2=O` (stereo not drawn), the 90% effect concentration (IC90) was greater than 10 µM. In addition, the IC50 (PBLUC_HILL_SLOPE 1.52, PBLUC_R_SQUARED 0.607, read-out: LUCIFERASE INFECTION ASSAY - IC50) amounted to 3.47 µM.

On to `COc1ccc(C(NS(=O)(=O)c2ccc(-n3ncc(Cl)c(Cl)c3=O)cc2)C(C)C)cc1` (stereo not drawn), for which the IC90 was 2.38 µM. For the same compound, the IC50 (HEPG2TOX_HILL_SLOPE 9.92, HEPG2TOX_R_SQUARED 0.979, PBLUC_HILL_SLOPE 3.67, PBLUC_R_SQUARED 0.728, read-out: LUCIFERASE INFECTION ASSAY - IC50) was determined as 1.31 µM.

In the case of `COc1cc(OC)c(C(=O)N2CC=C(c3c[nH]c4ccccc34)CC2)cc1OC`, the IC90 is greater than 10 µM. Besides, under setting [1], the 50% inhibitory concentration (IC50) is greater than 10 µM.

Turning to `CCCCCc1ccc(NC(=O)NC2=NCCS2)cc1`, the concentration for an effect of 90% (IC90) is greater than 11.3 µM. In addition, the IC50 under setting [1] was greater than 11.3 µM.

For `Cc1csc2sc(C(=O)N3CCOCC3)c(C)c12`, the IC90 was greater than 11.7 µM. Besides, the IC50 under setting [1] was greater than 11.7 µM.

Regarding `CC(C)(C)c1ccc(OCC(=O)Nc2cnn(C(C)(C)C(=O)NCc3ccccc3)c2)cc1`, the IC90 was greater than 10 µM. Further, the half-maximal inhibitory concentration (IC50) under setting [1] was greater than 10 µM.

In the case of `CN(C)c1ccc(CNC(=O)C2CCN(C(=O)NCc3ccco3)CC2)cc1`, the concentration for an effect of 90% (IC90) is greater than 10 µM. Moreover, the IC50 under setting [1] is greater than 10 µM.

As for `CCOc1ncccc1C(=O)Nc1ccc(NC(=O)C2CC2)cc1C(F)(F)F`, the IC90 was greater than 10 µM. Under setting [1], the IC50 is greater than 10 µM.

Take `C=S(=O)(NC(=O)CSc1nc2ccccc2s1)c1ccc(Cl)cc1` (stereo not drawn): the IC90 is greater than 8.31 µM. Also, the IC50 (FFLUC_HILL_SLOPE 11.2, FFLUC_R_SQUARED 0.126, read-out: LUCIFERASE INFECTION ASSAY - IC50) was greater than 8.31 µM.

For `CCOC(=O)/C(=N\Nc1cccc(C(F)(F)F)c1)NC(C)c1ccccc1` (stereo not drawn), the IC90 is greater than 10 µM. Moreover, for the setting “PBLUC_HILL_SLOPE 1.36, PBLUC_R_SQUARED 0.117, read-out: LUCIFERASE INFECTION ASSAY - IC50”, the IC50 is greater than 10 µM.

In the case of `O=C(Nc1ccc2c(c1)OC(F)(F)O2)c1ccc(F)c(F)c1`, the IC90 was greater than 10 µM. Moreover, the concentration for half-maximal inhibition (IC50) under setting [1] was 9.62 µM.

In the case of `O=C(CNc1cc(C(F)(F)F)cc(C(F)(F)F)c1)NC(=O)NC1CCCC1`, the IC90 is greater than 10 µM. In addition, the IC50 under setting [1] is 5.94 µM.

As to `Cc1nn(Cc2ccccc2Cl)c(C)c1C(=O)Nc1nc(-c2ccccn2)cs1`, the IC90 amounted to 6.51 µM. In addition, the IC50 (PBLUC_HILL_SLOPE 5.44, PBLUC_R_SQUARED 0.0706, read-out: LUCIFERASE INFECTION ASSAY - IC50) is 4.34 µM.

Take `CCc1nc(Sc2nnnn2-c2ccccc2)c2c3c(sc2n1)CCCC3`: the IC90 was greater than 10 µM. Besides, the IC50 under setting [1] is greater than 10 µM.

Consider `Cc1ccc(CNc2ncnc3sccc23)cc1`, for which the IC90 was greater than 10 µM. In addition, under “HEPG2TOX_HILL_SLOPE 1.53, HEPG2TOX_R_SQUARED 0.949, PBLUC_HILL_SLOPE 1.13, PBLUC_R_SQUARED 0.759, read-out: LUCIFERASE INFECTION ASSAY - IC50”, the IC50 was found to be 3.63 µM.

On to `CCC(C)(C)NC(=O)CSc1nnc(/C=C/c2ccccc2C)[nH]1`, for which the IC90 was greater than 10 µM. Further, the IC50 under setting [1] is greater than 10 µM.

On to `CC(=O)Oc1cccc(C(=O)N2CC3ON=C(c4c(F)cccc4Cl)C3C2)c1C` (stereo not drawn), for which the IC90 is greater than 10 µM. In addition, under setting [1], the IC50 is greater than 10 µM.

As to `O=C(CSc1ccccc1C(=O)N(Cc1ccco1)Cc1cccs1)NC12CC3CC(CC(C3)C1)C2`, the IC90 was found to be 7.68 µM. Also, the concentration for half-maximal inhibition (IC50) (FFLUC_HILL_SLOPE 5.22, FFLUC_R_SQUARED 0.381, HEPG2TOX_HILL_SLOPE 38.7, HEPG2TOX_R_SQUARED 0.813, PBLUC_HILL_SLOPE 3.47, PBLUC_R_SQUARED 0.525, read-out: LUCIFERASE INFECTION ASSAY - IC50) was found to be 4.08 µM.

Take `Cc1ccc(S(=O)(=O)N2CCN(C(=O)C3CCN(c4nc5ccccc5o4)CC3)CC2)cc1C`: the IC90 was found to be 2.62 µM. Further, the IC50 (HEPG2TOX_HILL_SLOPE 0.685, HEPG2TOX_R_SQUARED 0.962, PBLUC_HILL_SLOPE 3.7, PBLUC_R_SQUARED 0.71, read-out: LUCIFERASE INFECTION ASSAY - IC50) came to 1.45 µM.

In the case of `COc1ccc(CCn2nc(C(=O)N(C)C)c3c2CCN(CCCc2ccccc2)C3)cc1`, the IC90 is greater than 7.39 µM. In addition, under setting [1], the IC50 was greater than 7.39 µM.

With `OC(COc1ccc(OC(F)(F)F)cc1)CN1CCN(c2nc3ccc(Cl)cc3s2)CC1` (stereo not drawn), the IC90 is greater than 6.76 µM. In addition, for the setting “HEPG2TOX_HILL_SLOPE 3.53, HEPG2TOX_R_SQUARED 0.823, PBLUC_HILL_SLOPE 2.94, PBLUC_R_SQUARED 0.35, read-out: LUCIFERASE INFECTION ASSAY - IC50”, the IC50 worked out at 4.19 µM.

With `O=C(Nc1csc([N+](=O)[O-])c1)Nc1ccccc1Cl`, the IC90 was greater than 11.1 µM. Further, the IC50 (PBLUC_HILL_SLOPE 16.6, PBLUC_R_SQUARED 0.0194, read-out: LUCIFERASE INFECTION ASSAY - IC50) came to 11 µM.

For the compound `O=C(CC1S/C(=N\c2ccccn2)NC1=O)Nc1ccc(Cl)cc1` (stereo not drawn), the IC90 is greater than 10 µM. Besides, the IC50 (PBLUC_HILL_SLOPE 2.4, PBLUC_R_SQUARED 0.685, read-out: LUCIFERASE INFECTION ASSAY - IC50) amounted to 5.95 µM.

For `COc1cc(-c2[nH]nc3nccc(/C=C/c4ccccc4)c23)cc(OC)c1OC`, the IC90 was determined as 0.962 µM. For the setting “HEPG2TOX_HILL_SLOPE 1.93, HEPG2TOX_R_SQUARED 0.947, PBLUC_HILL_SLOPE 2.35, PBLUC_R_SQUARED 0.701, read-out: LUCIFERASE INFECTION ASSAY - IC50”, the IC50 stood at 0.378 µM.

Consider `Cc1cccc(OC2=C(Cl)C(=O)c3ccccc3C2=O)c1`, for which the IC90 is greater than 11 µM. Further, the IC50 (HEPG2TOX_HILL_SLOPE 2.98, HEPG2TOX_R_SQUARED 0.916, PBLUC_HILL_SLOPE 1.18, PBLUC_R_SQUARED 0.608, read-out: LUCIFERASE INFECTION ASSAY - IC50) is 5.41 µM.

In the case of `Cc1cc(C)c(C)c(S(=O)(=O)N2CCC(C(=O)Nc3cc(S(=O)(=O)Nc4ccc(Cl)cc4)ccc3N3CCOCC3)CC2)c1C`, the IC90 came out at 3.69 µM. Further, the IC50 (FFLUC_HILL_SLOPE 3.74, FFLUC_R_SQUARED 0.802, PBLUC_HILL_SLOPE 15.7, PBLUC_R_SQUARED 0.403, read-out: LUCIFERASE INFECTION ASSAY - IC50) is 3.21 µM.

In the case of `CCN1CCN(c2cc(C(C)(C)C)nc3c(-c4ccccc4)cnn23)CC1`, the IC90 was greater than 9.08 µM. Also, the IC50 (PBLUC_HILL_SLOPE 3.68, PBLUC_R_SQUARED 0.383, read-out: LUCIFERASE INFECTION ASSAY - IC50) is 6.05 µM.

For the compound `Fc1ccc(NC(=S)NN=C2c3ccccc3-c3ccccc32)c(F)c1`, the IC90 is greater than 10 µM. The IC50 under setting [1] was greater than 10 µM.

On to `Cc1nn(Cc2ccccc2Cl)c2sc(C(=O)NC3CCN(Cc4ccccc4)CC3)cc12`, for which the IC90 was greater than 10 µM. For the same compound, under setting [1], the IC50 is greater than 10 µM.

`CCCCNC(=O)c1c(NC(=O)c2cccc(Cl)c2Cl)nc2ccc(C)cn12`: the IC90 was 1.27 µM. The half-inhibitory concentration (IC50) (HEPG2TOX_HILL_SLOPE 1.01, HEPG2TOX_R_SQUARED 0.774, PBLUC_HILL_SLOPE 4.09, PBLUC_R_SQUARED 0.588, read-out: LUCIFERASE INFECTION ASSAY - IC50) is 0.743 µM.

For the compound `Cc1cnc(-c2nc(-c3ccccc3)c3n2CCN(Cc2ccc(C4CCCCO4)s2)C3)cn1` (stereo not drawn), the IC90 was greater than 7 µM. Moreover, the IC50 (PBLUC_HILL_SLOPE 1.74, PBLUC_R_SQUARED 0.822, read-out: LUCIFERASE INFECTION ASSAY - IC50) was determined as 3.61 µM.

`Cc1ccc(-c2nc(COC(=O)Cc3ccccc3[N+](=O)[O-])cs2)cc1`: the IC90 is greater than 10 µM. Also, where the note is “HEPG2TOX_HILL_SLOPE 1.86, HEPG2TOX_R_SQUARED 0.968, PBLUC_HILL_SLOPE 3.1, PBLUC_R_SQUARED 0.491, read-out: LUCIFERASE INFECTION ASSAY - IC50”, the half-maximal inhibitory concentration (IC50) came to 6.23 µM.

Turning to `CCOC(=O)c1c(N)sc(Cc2sc(N)c(C(=O)OCC)c2-c2ccccc2)c1-c1ccccc1`, the IC90 was determined as 5.92 µM. For the same compound, for the setting “FFLUC_HILL_SLOPE 10.1, FFLUC_R_SQUARED 0.631, HEPG2TOX_HILL_SLOPE 3.62, HEPG2TOX_R_SQUARED 0.944, PBLUC_HILL_SLOPE 88.7, PBLUC_R_SQUARED 0.482, read-out: LUCIFERASE INFECTION ASSAY - IC50”, the IC50 came out at 5.77 µM.

Consider `O=C(Cn1cnc2c(cnn2-c2ccccc2[N+](=O)[O-])c1=O)Nc1ccc(OCc2ccccc2)cc1`, for which the IC90 was greater than 10 µM. Besides, where the note is “PBLUC_HILL_SLOPE 3.88, PBLUC_R_SQUARED 0.658, read-out: LUCIFERASE INFECTION ASSAY - IC50”, the IC50 came to 7.44 µM.

As for `CCCCOc1ccc(Nc2nc(C(N)CCc3ccccc3)cs2)nn1` (stereo not drawn), the IC90 is greater than 8.6 µM. For the same compound, the IC50 under setting [1] is greater than 8.6 µM.

Turning to `CN(C1CCCCC1)S(=O)(=O)c1cccc(C(=O)Nc2ccc(S(=O)(=O)NCc3ccco3)cc2)c1`, the IC90 was determined as 1.72 µM. Moreover, the 50% inhibitory concentration (IC50) (HEPG2TOX_HILL_SLOPE 1.16, HEPG2TOX_R_SQUARED 0.836, PBLUC_HILL_SLOPE 2.1, PBLUC_R_SQUARED 0.409, read-out: LUCIFERASE INFECTION ASSAY - IC50) was 0.606 µM.

Turning to `CC(=O)c1c(C)[nH]c(C(=O)Nc2ccc(Oc3ccccc3Cl)cc2)c1C`, the IC90 came out at 7.08 µM. The IC50 (HEPG2TOX_HILL_SLOPE 17, HEPG2TOX_R_SQUARED 0.739, PBLUC_HILL_SLOPE 1.26, 0.690, PBLUC_R_SQUARED 0.562, 0.913, read-out: LUCIFERASE INFECTION ASSAY - IC50) stood at 0.831 µM.

With `NC(=O)N1CC=C(c2ccc(Oc3ncnc4sccc34)cc2)CC1`, the IC90 was greater than 2 µM. In addition, the IC50 under setting [1] is greater than 2 µM.
